Measurements taken from patent publication US20240082313A1, “PHARMACEUTICAL COMPOSITIONS AND THEIR METHODS OF USE” (The Trustees of Indiana University, priority 2021, published 2024).

Key:
[1] = tested on: EO771 mammary tumor cells; test: TRANSWELL invasion assay; format: cell-based, mouse; conditions: inhibitor applied with iTS CM
Description: Invasion assay. The invasion capacity of cancer cells was determined using a 24-well plate, TRANSWELL® chambers (Thermo Fisher Scientific, Waltham, MA, USA) with […] pore size and MATRIGEL™. Cell invasion was measured in TRANSWELL® chambers with a coating including MATRIGEL™ (100 μg/ml). The cells in 200 μL serum-free DMEM were placed on the upper chamber and 800 μL iTS CM was added in the lower chamber. After 24 h, the cells that had invaded the lower side of the membrane were stained with Crystal Violet. At least five randomly chosen images were taken under a microscope, and the average number of stained cells that represented the relative invasion was determined.

[2] = tested on: EO771 mammary tumor cells; test: Wound-healing scratch assay; format: cell-based, mouse; conditions: inhibitor applied with iTS CM
Description: Two-dimensional motility assay. A wound-healing scratch motility assay was performed to measure 2-dimensional cell motility. Cells were seeded in 12-well plates, after cell attachment, a plastic pipette tip was used to scratch a gap on the cell layer. Images of the cell-free scratch zone were obtained via an inverted microscope at 0 h, and the areas newly occupied with cells were determined 48 h after scratching. The areas were quantified with Image J (National Institutes of Health, Maryland, USA).
Scratch assay. A wound-healing scratch assay was conducted to evaluate 2-dimensional migratory behavior. Approximately 4×10^5 cells were seeded in 12-well plates. After cell attachment, a plastic pipette tip was used to scratch a gap on the cell layer. After the removal of the floating cells, CM was added. Images of the cell-free scratch zone were collected at 0 h, and the areas newly occupied with cells were determined 24-48 h after scratching. The areas were quantified with IMAGE J™ (National Institutes of Health, Bethesda, MD, USA).

[3] = tested on: 4T1.2 mouse mammary tumor cells; test: Tumor selectivity from MTT-based viability (tumor vs non-tumor cells); format: cell-based
Source text: (§1) Variations in tumor selectivity among the predicted tumor-suppressing proteins. Tumor-suppressing proteins may inhibit the progression of tumor cells but not inhibit the progression of non-tumor cells. Using the MTT-based viability, tumor selectivity was defined as a ratio of (reduction in MTT-based viability of tumor cells) to (reduction in MTT-based viability of non-tumor cells). The tumor selectivity may be above one to remove tumor cells and a larger value may signify a reduction in the inhibition of the growth of non-tumor cells. The tumor selectivity was determined using three tumor cells (4T1.2 mouse mammary tumor cells, EO771 mammary tumor cells, and MDA-MB-231 breast cancer cells) and three non-tumor cells (adipose cells, MLO-A5 osteocytes, and murine MSCs). […] Table 2 provides the tumor selectivity of 4T1.2 Oct4 CM, 4T1.2 c-Myc CM, and 10 tumor-suppressing protein candidates.

[4] = tested on: MDA-MB-231 breast cancer cells; test: as above; format: cell-based, human
Source text: as §1

[5] = tested on: EO771 mammary tumor cells; test: as above; format: cell-based, mouse; conditions: tumor cells EO
Source text: as §1

EO771 cells = test: Western blot analysis; format: cell-based, mouse
Description: Western blot analysis. Cultured cells were lysed in a radio-immunoprecipitation assay buffer with protease inhibitors (Santa Cruz Biotechnology, Santa Cruz, CA, USA) and phosphatase inhibitors (Calbiochem, Billerica, MA, USA). After cell lysis, proteins were fractionated by 10-15% SDS gels and electro-transferred to polyvinylidene difluoride (“PVDF”) transfer membranes (Millipore, Billerica, MA, USA). After blocking 1 h with a blocking buffer (Bio-Rad), the membrane was incubated overnight with primary antibodies and then with secondary antibodies conjugated with horseradish peroxidase for 45 min (Cell Signaling, Danvers, MA, USA). Antibodies against β-catenin, cleaved-caspase 3, Runx2, Snail, Enolase-1 (Cell Signaling, Danvers, MA, USA), MMP9 (Santa Cruz, Dallas, TX, USA), TRAIL (Novus, Centennial, CO, USA), p53 (Invitrogen, Carlsbad, CA, USA), and β-actin as a control (Sigma, St. Louis, MO, USA), were employed. The level of proteins was determined using a SUPERSIGNAL™ west femto maximum sensitivity substrate (Thermo Scientific, Waltham, MA, USA), and a luminescent image analyzer (LAS-3000, Fuji Film, Tokyo, Japan) was used to quantify signal intensities.

Molecule | inhibitory effect of β-catenin-overexpressing iTS CM on invasion [1] | inhibitory effect of β-catenin-overexpressing iTS CM on migration [2] | Tumor selectivity ([3]; non-tumor cells A5) | Tumor selectivity ([3]; non-tumor cells Adipose) | Tumor selectivity ([3]; non-tumor cells MSC) | Tumor selectivity ([4]; non-tumor cells A5) | Tumor selectivity ([4]; non-tumor cells Adipose) | Tumor selectivity ([4]; non-tumor cells MSC) | Tumor selectivity ([5]; non-tumor cells A5) | Tumor selectivity ([5]; non-tumor cells Adipose) | Tumor selectivity ([5]; non-tumor cells MSC) | level of cleaved caspase 3 (EO771 cells)
NCCOCCOCCNC(=O)Cc1ccc(Nc2nc(NCc3ccc(F)cc3)nc(NCC3CCCCC3)n2)cc1 [AP-III-a4, reference compound] | suppressed the inhibitory effect | suppressed the inhibitory effect | – | – | – | – | – | – | – | – | – | –
Flna: recombinant protein, tumor-suppressing protein candidate | – | – | 1.43 | 1.19 | 1.05 | 1.54 | 1.28 | 1.13 | 1.97 | 1.64 | 1.45 | –
Myh9: recombinant protein, tumor-suppressing protein candidate | – | – | 0.25 | 0.48 | 0.70 | 0.23 | 0.46 | 0.66 | 0.32 | 0.64 | 0.93 | –
Plec: recombinant protein, tumor-suppressing protein candidate | – | – | 1.33 | 1.28 | 1.06 | 1.16 | 1.10 | 0.91 | 1.95 | 1.86 | 1.54 | –
Aldoa: recombinant protein, tumor-suppressing protein candidate (protein, UniProt P05064 2-364, looked up) Fructose-bisphosphate …: PHPYPALTPEQKKELSDIAHRIVAPGKGILAADESTGSIAKRLQSIGTENTEENRRFYRQLLLTADDRVNPCIGGVILFHETLYQKADDGRPFPQVIKSKGGVVGIKVDKGVVPLAGTNGETTTQGLDGLSERCAQYKKDGADFAKWRCVLKIGEHTPSALAIMENANVLARYASICQQNGIVPIVEPEILPDGDHDLKRCQYVTEKVLAAVYKALSDHHVYLEGTLLKPNMVTPGHACTQKFSNEEIAMATVTALRRTVPPAVTGVTFLSGGQSEEEASINLNAINKCPLLKPWALTFSYGRALQASALKAWGGKKENLKAAQEEYIKRALANSLACQGKYTPSGQSGAAASESLFISNHAY | – | – | 2.72 | 3.06 | 1.39 | 1.75 | 1.97 | 0.90 | 1.87 | 2.10 | 0.96 | –
TRAIL: an apoptosis-inducing factor applied to EO771 tumor cells (protein, UniProt P50592 1-291, looked up) Tumor necrosis factor ligand …: MPSSGALKDLSFSQHFRMMVICIVLLQVLLQAVSVAVTYMYFTNEMKQLQDNYSKIGLACFSKTDEDFWDSTDGEILNRPCLQVKRQLYQLIEEVTLRTFQDTISTVPEKQLSTPPLPRGGRPQKVAAHITGITRRSNSALIPISKDGKTLGQKIESWESSRKGHSFLNHVLFRNGELVIEQEGLYYIYSQTYFRFQEAEDASKMVSKDKVRTKQLVQYIYKYTSYPDPIVLMKSARNSCWSRDAEYGLYSIYQGGLFELKKNDRIFVSVTNEHLMDLDQEASFFGAFLIN | – | – | – | – | – | – | – | – | – | – | – | increased
Eef1a1: recombinant protein, tumor-suppressing protein candidate (protein, UniProt P10126 2-462, looked up) Elongation factor 1-alpha 1: GKEKTHINIVVIGHVDSGKSTTTGHLIYKCGGIDKRTIEKFEKEAAEMGKGSFKYAWVLDKLKAERERGITIDISLWKFETSKYYVTIIDAPGHRDFIKNMITGTSQADCAVLIVAAGVGEFEAGISKNGQTREHALLAYTLGVKQLIVGVNKMDSTEPPYSQKRYEEIVKEVSTYIKKIGYNPDTVAFVPISGWNGDNMLEPSANMPWFKGWKVTRKDGSASGTTLLEALDCILPPTRPTDKPLRLPLQDVYKIGGIGTVPVGRVETGVLKPGMVVTFAPVNVTTEVKSVEMHHEALSEALPGDNVGFNVKNVSVKDVRRGNVAGDSKNDPPMEAAGFTAQVIILNHPGQISAGYAPVLDCHTAHIACKFAELKEKIDRRSGKKLEDGPKFLKSGDAAIVDMVPGKPMCVESFSDYPPLGRFAVRDMRQTVAVGVIKAVDKKAAGAGKVTKSAQKAQKAK | – | – | 1.23 | 0.74 | 1.34 | 0.86 | 0.52 | 0.94 | 0.96 | 0.58 | 1.05 | –
